Results as given in the NIST ThermoML archive (doi:10.1016/j.fluid.2014.09.014).

Assay: xn = mol fraction of the nth substance listed
Conditions: 101 kPa, Liquid, mechanical oscillator

CC(C)OC(C)C [diisopropyl ether] + CC(C)O
mass density [kg/m3]
Conditions	293.15 K	298.15 K	303.15 K	308.15 K	313.15 K	318.15 K
x1 = 0.0277	784.54	780.15	775.28	770.51	766.2	–
x1 = 0.0507	783.14	778.52	773.7	769.05	764.54	759.23
x1 = 0.051	783.12	–	773.67	769.05	764.52	759.21
x1 = 0.0717	781.73	776.95	772.14	767.56	762.92	757.56
x1 = 0.1528	775.51	770.53	765.48	760.84	756.03	750.75
x1 = 0.1938	772.05	–	761.88	757.06	–	–
x1 = 0.2029	771.28	766.41	761.07	756.2	751.49	746.41
x1 = 0.245	767.66	762.95	757.34	752.2	747.64	742.79
x1 = 0.297	–	758.78	752.77	747.3	742.94	738.39
x1 = 0.3068	762.42	758.01	751.96	746.39	742.11	737.61
x1 = 0.398	755.24	751.23	744.62	738.38	734.56	730.51
x1 = 0.4609	750.87	747.02	740.13	733.51	729.95	726.09
x1 = 0.5434	745.99	742.15	735.09	728.12	724.76	720.95
x1 = 0.6032	743.03	739.05	732	724.92	721.58	717.67
x1 = 0.6371	741.54	737.43	730.43	723.33	719.96	715.94
x1 = 0.701	738.99	–	–	–	–	–
x1 = 0.754	737.02	732.28	725.68	718.81	715.06	710.5
x1 = 0.791	–	730.68	724.25	717.51	713.58	708.82
x1 = 0.8296	734.1	728.95	722.69	716.11	711.97	707.02
x1 = 0.8903	731.31	725.97	719.93	713.61	709.12	703.97
x1 = 0.9113	730.18	724.83	718.84	712.6	707.99	702.81
x1 = 0.9547	727.49	722.2	716.27	710.18	705.35	700.18
x1 = 0.973	726.17	720.98	715.03	708.99	704.08	698.96
x1 = 0.9771	725.86	720.69	714.73	708.7	703.78	698.67
x1 = 1	723.86	718.3	712.68	707.06	701.5	696.98
